According to PubChem BioAssay AID792 (PCMD, 2007):
Records with an inconclusive call do not appear. Calls of active or inactive are those of the source. How the calls were made is not given here.

Biological target: S. cerevisiae eIF2B mutant, luciferase reporter luminescence
Assay: potency on yeast eIF2B luminescence signal – S. cerevisiae, mutant, wild-type, growth, dose response (AID 792)
[1] = measured here: mutant yeast growth
[2] = S. cerevisiae wild-type, luminescence

CCN(CC)c1ncnc2sc(C(=O)N3CCN(c4ccc(OC)cc4)CC3)c(C)c12
IC50: > 100 µM (inactive)
IC50 [1]: > 100 µM

CC1(C)CC(=O)c2cc(OCC(=O)NCCCN3CCN(c4ccccc4F)CC3)ccc2O1
IC50: > 100 µM (inactive)
IC50 [1]: > 100 µM

COC(=O)c1nn(-c2ccc3c(c2)CCN3C(C)=O)cc1O
IC50: inactive
IC50 [2]: 3.61 µM
IC50 [1]: > 100 µM

O=C1CNC(=O)N1Cc1ccc(Br)cc1
IC50: > 100 µM (inactive)
IC50 [1]: > 100 µM

COc1ccc(-c2nnn(CC(=O)N(Cc3ccc(F)cc3)C(C(=O)NC3CCCC3)c3ccc(F)cc3)n2)cc1 (stereo not given)
IC50: > 100 µM (inactive)
IC50 [1]: > 100 µM

Cc1ccc(NC(=O)c2ccc(S(=O)(=O)N3CCCCC3)cc2)cc1
IC50: > 100 µM (inactive)
IC50 [1]: > 100 µM

COc1cccc(C2NC(CC(C)C)(C(=O)O)C3C(=O)N(Cc4ccccc4)C(=O)C23)c1O (stereo not given)
IC50: > 100 µM (inactive)
IC50 [1]: > 100 µM

CCOCCCNC(=O)C1CCN(c2cc(C)nc3c(-c4ccc(OC)c(OC)c4)c(C)nn23)CC1
IC50: > 100 µM (inactive)
IC50 [1]: > 100 µM

CC1(C)CC(=O)C=C(NCCCNC2CCCCC2)C1
IC50: > 100 µM (inactive)
IC50 [1]: > 100 µM

COc1ccc(C(=O)/C=C/Nc2ccccn2)cc1
IC50: inactive
IC50 [2]: 18.3 µM
IC50 [1]: > 100 µM

COc1cc2cc(C(c3nnnn3C3CCCCC3)N(C)C3CCCCC3)c(=O)[nH]c2cc1OC (stereo not given)
IC50: > 100 µM (inactive)
IC50 [1]: > 100 µM

c1ccc(CCc2nc(-c3ccncc3)no2)cc1
IC50: > 100 µM (inactive)
IC50 [1]: > 100 µM

C=CCNc1nc(-c2cccc(OC)c2O)nc2ccccc12
IC50: > 100 µM (inactive)
IC50 [1]: > 100 µM

COc1ccccc1NC(=O)CSc1nc(O)cc(=O)n1C
IC50: > 100 µM (inactive)
IC50 [1]: > 100 µM

CCCCN(Cc1ccccc1)S(=O)(=O)c1ccc2[nH]c(=O)oc2c1
IC50: > 100 µM (inactive)
IC50 [1]: > 100 µM

COC(=O)Cc1c(C)c2cc(Cl)c(OC(=O)c3ccco3)cc2oc1=O
IC50: > 100 µM (inactive)
IC50 [1]: > 100 µM

O=C1c2ccccc2C(=O)C1c1ccncc1
IC50: inactive
IC50 [2]: 17.9 µM
IC50 [1]: > 100 µM

CN(C)CCN1C(=O)C(O)=C(C(=O)c2ccco2)C1c1ccccc1F (stereo not given)
IC50: > 100 µM (inactive)
IC50 [1]: > 100 µM

COc1cccc(-n2ccnc2SCC(=O)Nc2cc(OC)ccc2OC)c1
IC50: > 100 µM (inactive)
IC50 [1]: > 100 µM

C=CCn1c(N)cc(=O)nc1SCC(=O)Nc1ccccc1
IC50: > 100 µM (inactive)
IC50 [1]: > 100 µM

Cc1ccccc1OCc1nc2c3cnn(C)c3ncn2n1
IC50: > 100 µM (inactive)
IC50 [1]: > 100 µM

CCOC(=O)c1c(N)nn(C(C)=O)c1-c1ccccc1
IC50: > 100 µM (inactive)
IC50 [1]: > 100 µM

O=C(CC(C(=O)N1CCc2ccccc21)n1ccnc1)NCC1CCCO1 (stereo not given)
IC50: > 100 µM (inactive)
IC50 [1]: > 100 µM

O=C(Nc1cccc(-c2cn3cccnc3n2)c1)c1ccc2c(c1)OCO2
IC50: > 100 µM (inactive)
IC50 [1]: > 100 µM

Cc1ccc(C(=O)NCc2ccco2)cc1S(=O)(=O)Nc1cccc(C)c1C
IC50: > 100 µM (inactive)
IC50 [1]: > 100 µM

O=C(NC1CCCC1)C(c1ccsc1)N(Cc1ccco1)C(=O)Cc1cccs1 (stereo not given)
IC50: > 100 µM (inactive)
IC50 [1]: > 100 µM

Oc1ccccc1-c1nnc(-c2ccc(C(F)(F)F)cc2)o1
IC50: > 100 µM (inactive)
IC50 [1]: > 100 µM

Cn1c(=O)[nH]c(=O)c2c1nc(SCC(O)CO)n2Cc1ccccc1Cl (stereo not given)
IC50: > 100 µM (inactive)
IC50 [1]: > 100 µM

O=C(CSc1nnc(-c2ccccn2)n1-c1ccccc1)Nc1ccc2c(c1)OCO2
IC50: > 100 µM (inactive)
IC50 [1]: > 100 µM

Cc1nnc(NC(=O)C2(c3ccccc3)CCOCC2)s1
IC50: > 100 µM (inactive)
IC50 [1]: > 100 µM

CCCCOc1ccc(C2CC(=O)N(C)C2=O)cc1 (stereo not given)
IC50: > 100 µM (inactive)
IC50 [1]: > 100 µM

C=CCn1c(SCC(=O)Nc2cc(C)cc(C)c2)nnc1-c1cnccn1
IC50: > 100 µM (inactive)
IC50 [1]: > 100 µM

COC(=O)C(NC(=O)c1ccco1)(Nc1nc(C)cs1)C(F)(F)F (stereo not given)
IC50: > 100 µM (inactive)
IC50 [1]: > 100 µM

COc1ccccc1CNC(=O)CN(c1ccc(C)cc1)S(=O)(=O)c1c(C)nn(C)c1C
IC50: > 100 µM (inactive)
IC50 [1]: > 100 µM

Cc1cc(C(=O)Nc2sc3c(c2C#N)CCC(C)C3)no1 (stereo not given)
IC50: > 100 µM (inactive)
IC50 [1]: > 100 µM

N#CC1=C(SCC(=O)c2ccc(Cl)cc2)NC2=C(C(=O)CCC2)C1c1ccco1 (stereo not given)
IC50: > 100 µM (inactive)
IC50 [1]: > 100 µM

COC(=O)c1nn2c(C(F)(F)F)cc(-c3ccc(Br)o3)nc2c1Br
IC50: > 100 µM (inactive)
IC50 [1]: > 100 µM

COC(=O)c1cn(CCOc2ccccc2)c2ccccc12
IC50: > 100 µM (inactive)
IC50 [1]: > 100 µM

CNC(=O)CSc1nc(N)c2c3c(sc2n1)CCC3
IC50: > 100 µM (inactive)
IC50 [1]: > 100 µM

O=c1/c(=C/c2ccc(CNS(=O)(=O)c3ccccc3)o2)sc2n1CCN=2
IC50: > 100 µM (inactive)
IC50 [1]: > 100 µM

Cc1cc(NC(=O)CN2CCCC(C)C2)n(-c2nc3ccccc3s2)n1 (stereo not given)
IC50: > 100 µM (inactive)
IC50 [1]: > 100 µM

CCOC(=O)c1c(NC(=O)COC)sc2c1CCCC2
IC50: > 100 µM (inactive)
IC50 [1]: > 100 µM

CCn1c(SCC(=O)Nc2oc(-c3ccccc3)c(-c3ccccc3)c2C#N)nnc1-c1ccco1
IC50: > 100 µM (inactive)
IC50 [1]: > 100 µM

CCOC(=O)Cc1csc(NC(NC(=O)CC)(C(F)(F)F)C(F)(F)F)n1
IC50: > 100 µM (inactive)
IC50 [1]: > 100 µM

O=C(CCC1COc2ccccc2O1)Nc1ccc(Cl)cn1 (stereo not given)
IC50: > 100 µM (inactive)
IC50 [1]: > 100 µM

COc1ccc(NC(=O)c2ccco2)cc1NC(=O)c1ccc(C)cc1
IC50: > 100 µM (inactive)
IC50 [1]: > 100 µM

COc1ccc(N(C(=O)c2ccco2)S(=O)(=O)c2cccs2)cc1
IC50: > 100 µM (inactive)
IC50 [1]: > 100 µM

O=C(c1ccccc1)N1CCN(C(=O)c2ccncc2)CC1
IC50: > 100 µM (inactive)
IC50 [1]: > 100 µM

CCOP(=O)(C#CC(C)(C)C)C1(O)CCCCC1 (stereo not given)
IC50: > 100 µM (inactive)
IC50 [1]: > 100 µM

O=C(CCS(=O)CCC(=O)NCc1ccccc1)NCc1ccccc1
IC50: > 100 µM (inactive)
IC50 [1]: > 100 µM

CCOC(=O)Cn1c(=O)c(-c2ccccc2NCc2ccccc2)nc2ccccc21
IC50: > 100 µM (inactive)
IC50 [1]: > 100 µM

C=CCn1c(SCc2c(Cl)cccc2Cl)nnc1-c1cccnc1
IC50: > 100 µM (inactive)
IC50 [1]: > 100 µM

CCn1c(C)c(/C=N/Nc2nc3ccccc3s2)c2ccccc21
IC50: > 100 µM (inactive)
IC50 [1]: > 100 µM

COc1ccccc1-c1nnc2sc(COc3ccc(Cl)cc3)nn12
IC50: > 100 µM (inactive)
IC50 [1]: > 100 µM

Cc1cc2c(cc1C)CSC(c1ccc(O)cc1)SC2
IC50: > 100 µM (inactive)
IC50 [1]: > 100 µM

COCCn1c(-c2ccccc2)cc(C(=O)O)c1C
IC50: > 100 µM (inactive)
IC50 [1]: > 100 µM

COc1ccccc1NC(=O)c1cc2ccccc2o/c1=N\O
IC50: > 100 µM (inactive)
IC50 [1]: > 100 µM

CC(C)Cc1nnc(NC(=O)CC(=O)Nc2ccccc2C(=O)O)s1
IC50: inactive
IC50 [2]: 65.4 µM
IC50 [1]: > 100 µM

O=C(NCCc1ccccn1)c1cccc(S(=O)(=O)N2CCCCCC2)c1
IC50: > 100 µM (inactive)
IC50 [1]: > 100 µM

CCOC(=O)c1nn(-c2cccc(Cl)c2)c2nc(CC(C)C)c(C#N)c(=O)n12
IC50: > 100 µM (inactive)
IC50 [1]: > 100 µM

CC(C)c1[nH]c(=O)c(C#N)c2c1COC(C)(C)C2
IC50: > 100 µM (inactive)
IC50 [1]: > 100 µM

Cc1cc(C(=O)Nc2ccccc2C(F)(F)F)no1
IC50: > 100 µM (inactive)
IC50 [1]: > 100 µM

CCC(C)N(C(=O)COC(=O)c1[nH]c(C)c(C(C)=O)c1C)C1CCS(=O)(=O)C1 (stereo not given)
IC50: > 100 µM (inactive)
IC50 [1]: > 100 µM

O=C(OCCn1cncn1)c1cc2ccccc2oc1=O
IC50: > 100 µM (inactive)
IC50 [1]: > 100 µM

N#Cc1c(N2CCOCC2)nc(-c2ccco2)c2c1CCCC2
IC50: > 100 µM (inactive)
IC50 [1]: > 100 µM

CCC(=O)Nc1c2c(nn1-c1ccc(C)cc1C)CSC2
IC50: > 100 µM (inactive)
IC50 [1]: > 100 µM

CCn1ncc(Br)c1C(=O)Nc1sc2c(c1C(N)=O)CCC2
IC50: > 100 µM (inactive)
IC50 [1]: > 100 µM

Cc1ncc(CC(=O)n2cc(C(=O)c3cc(F)ccc3O)cn2)s1
IC50: > 100 µM (inactive)
IC50 [1]: > 100 µM

CCOC(=O)C1CCCN(C(=O)c2cc3c(C)nc4ccccc4c3o2)C1 (stereo not given)
IC50: > 100 µM (inactive)
IC50 [1]: > 100 µM

Cc1ccc(Cn2nnnc2CN2CCC(O)(c3ccc(F)cc3)CC2)cc1
IC50: > 100 µM (inactive)
IC50 [1]: > 100 µM

COC(=O)c1cc2occc2n1CC(=O)Nc1ccc(OC)c(OC)c1
IC50: > 100 µM (inactive)
IC50 [1]: > 100 µM

CCOC(=O)CSc1nncc2ccc(OC)c(OC)c12
IC50: > 100 µM (inactive)
IC50 [1]: > 100 µM

COc1cc(C(=S)N2CCCC2)cc(OC)c1O
IC50: > 100 µM (inactive)
IC50 [1]: > 100 µM

O=C(Cn1nnc(-c2ccc(Cl)cc2)n1)NC1CC2CCC1C2 (stereo not given)
IC50: > 100 µM (inactive)
IC50 [1]: > 100 µM

CC(=O)c1cccc(-n2nnnc2SCC(=O)Nc2cccc(NC(=O)c3ccco3)c2)c1
IC50: > 100 µM (inactive)
IC50 [1]: > 100 µM

CN1C(=O)CC2(CC(=O)N(Cc3ccccc3)C2)C1=O (stereo not given)
IC50: > 100 µM (inactive)
IC50 [1]: > 100 µM

O=C(Oc1ccc2c(c1)CCC2)N1CCOCC1
IC50: > 100 µM (inactive)
IC50 [1]: > 100 µM

CN1CCc2nc(SCC(=O)Nc3ccc(Cl)cc3)c(C#N)cc2C1
IC50: > 100 µM (inactive)
IC50 [1]: > 100 µM

Nc1nnnn1/N=C/c1ccc(O)cc1
IC50: inactive
IC50 [2]: 2.78 µM
IC50 [1]: > 100 µM

CC1(C)Cc2c(c(=S)nc(-c3ccccc3)n2CCOCCO)CO1
IC50: > 100 µM (inactive)
IC50 [1]: > 100 µM
